Experimental data taken from US10960010B2, “Pharmaceutical compositions for sustained or delayed release” (INTRA-CELLULAR THERAPIES, INC., priority 2013, dated 2021).
Entries after “also recorded” stand apart in the source; their conditions may differ.

System: patients with schizophrenia
Test: Randomized, double-blind, placebo-controlled in-patient trial, 4-week treatment, PANSS
Assay type: in vivo, human
Method: For purposes of this example, Compound A refers to the compound of Formula I wherein X is —N(CH3)— and Y is —C(O)—; tosylate salt unless otherwise indicated. A randomized, double-blind, placebo-controlled, in-patient trial is performed. Four treatment arms, 4-week treatment duration, QAM dosing are performed as follows: 60 mg of Compound A; 120 mg of Compound A; positive control (4 mg Risperidone); and placebo. The primary outcome is measured by the change from baseline on Positive and Negative Syndrome Scale (PANSS) Total Score at Day 28. Secondary measures explore key differentiating features.
60 mg Compound A Treatment Arm receives 60 mg of Compound A once daily for 28 days. 120 mg Compound A Treatment Arm receives 60 mg Compound A on Study Day 1 followed by 120 mg Compound A once daily for 27 days. Risperidone Treatment Arm receives 2 mg risperidone on Study Day 1 followed by 4 mg risperidone once daily for 27 days. Placebo Treatment Arm receives placebo once daily for 28 days. All doses are administered in the morning with breakfast.
Key inclusion criteria: Clinical diagnosis of schizophrenia according to DSM-IV-TR is confirmed by modified SCID-CT. Screening Brief Psychiatric […] Scale (BPRS) score of 40 or greater (18-items scored 1-7 each). Minimum score of 4 or higher on at least two of the following positive items: suspiciousness, conceptual disorganization, hallucinatory behavior, unusual thought content. Current exacerbated episode lasts no longer than 4 weeks. Sufficient history and/or independent reporter must verify that current state is an exacerbated state for the individual. Prior response to antipsychotic therapy within the last 5 years, defined as clinically significant and documented decrease in delusions and/or hallucinations during a documented exacerbated episode (and at least 3 months prior exposure to antipsychotic therapy).
The trial has a high subject completion rate (74%) compared to an average of 62% completion rate in other 4-week antipsychotic trials. 19% discontinues during the study treatment period (during Day 1-28). 7% completes study treatment through Day 28, but are lost to follow up.

[1] = 60 mg, sub-group of patients with depression at baseline

SMILES | Prosocial PANSS Factor change from baseline compared to placebo (60 mg) | general psychopathology subscale of the PANSS (60 mg) | items on the negative symptom and general psychopathology subscales consistent with improved social function (60 mg) | positive symptom subscale of the PANSS (60 mg) | Effect Size (Total PANSS) (60 mg Compound A) | LS Mean Difference from Placebo (Total PANSS, Day 28) (60 mg Compound A) | LS Mean Change from Baseline on Day 28 Total PANSS (±SE) using MMRM/ITT (60 mg Compound A (tosylate) once daily in the morning, 28 days, N = 76) | PANSS total score, result in words (60 mg once daily in the morning, after 28 days of treatment) | hyperprolactinemia, EPS/akathisia, weight gain, cardiovascular safety (60 mg once daily, 28 days) | negative symptoms (PANSS Negative Symptom Sub-Scale) [1] | total PANSS [1] | negative symptoms (PANSS Negative Symptom Sub-Scale) (60 mg, subgroup of patients with prominent negative symptoms at baseline) | depression as measured by the CDSS (60 mg, subgroup with CDSS score >6 at baseline) | Effect Size (Total PANSS) (120 mg Compound A) | LS Mean Difference from Placebo (Total PANSS, Day 28) (120 mg Compound A) | LS Mean Change from Baseline on Day 28 Total PANSS (±SE) using MMRM/ITT (120 mg Compound A (60 mg on Day 1, then 120 mg once daily 27 days), N = 80) | Effect Size (Total PANSS) (4 mg Risperidone) | LS Mean Difference from Placebo (Total PANSS, Day 28) (4 mg Risperidone) | LS Mean Change from Baseline on Day 28 Total PANSS (±SE) using MMRM/ITT (4 mg Risperidone (2 mg on Day 1, then 4 mg once daily 27 days), N = 75) | total PANSS and negative symptoms compared with the Compound of Formula I (risperidone arm, sub-group of patients with depression at baseline)
CN1CCN2c3c(cccc31)[C@@H]1CN(CCCC(=O)c3ccc(F)cc3)CC[C@@H]12 [Compound A] | significantly improve | statistically significantly improves | improves certain items | statistically significantly improves | 0.4 | −5.8 | −13.2 ± 1.7 | demonstrates antipsychotic efficacy; also recorded: statistically significant and clinically meaningful decrease | does not cause hyperprolactinemia, EPS/akathisia, weight gain or cardiovascular safety issues | robustly improves | robustly improves | improves negative symptoms qualitatively | significantly reduces depression | 0.1 | −0.9 | −8.3 ± 1.7 |  |  |  | 
Cc1nc2n(c(=O)c1CCN1CCC(c3noc4cc(F)ccc34)CC1)CCCC2 [Risperidone, reference compound] |  |  |  |  |  |  |  |  |  |  |  |  |  |  |  |  | 0.4 | −6.0 | −13.4 ± 1.7 | less effective
